What was measured:
[1] = test system: patient's asthma, fluid retention, fatigue, weight loss and photo dermatitis; assay: Example 1: patient case, furosemide stopped and replaced with ethacrynic acid; type: in vivo; conditions: one patient
Excerpt: In this case it is thought that decreasing the medications for allergies the patient was on may have contributed to the unmasking of an allergy to one of the components in the trade name compound.

[2] = test system: third spacing of fluid refractory to sulfa/sulfonamide; assay: Example 2: patient case, sulfa/sulfonamide compound stopped and patient placed on ethacrynic acid; type: in vivo; conditions: one patient; in one month; ethacrynic acid for a short period while stopping the sulfa/sulfonamide compound
Excerpt: A patient who suffered from a mental impairment but knew they were allergic to sulfa/sulfonamide compounds (their blood pressure fell), had clinical evidence of edema even though the patient was on a potent sulfa/sulfonamide medication. The patient was placed on ethacrynic acid for a short period of time while stopping the sulfa/sulfonamide compound and in one month, 40 pounds of fluid was removed. In this case, the patient not only had clinical evidence of edema, they also had third spacing of fluid refractory to sulfa/sulfonamide they were on. Unfortunately the patient was lost to follow up.

C=C(CC)C(=O)c1ccc(OCC(=O)O)c(Cl)c1Cl [ethacrynic acid]
laboratory studies ([1]; after replacing furosemide with ethacrynic acid): resolution of pyuria | asthma, fluid retention, fatigue, weight loss and photo dermatitis ([1]; after stopping furosemide and replacing it with ethacrynic acid): improve within one weeks-time | use of other medications for asthma, myalgia, dyspepsia and other symptoms ([1]; during ethacrynic acid treatment): less use or even elimination of other medications | tolerability (reason the patient could not continue the medication) ([1]; trade name compound): adverse reaction to one of the constituents in the trade name compound | fluid removed [2]: 40 pounds

— US10016379B2, “Method of treatment for third spacing” (priority 2015, dated 2018)
